This note sets out measurements from patent US11865132B2, “Nucleoside derivatives and methods of use thereof” (Ascletis BioScience Co., Ltd., priority 2021, dated 2024).

The nature of the data set: Permeability of compounds in Caco-2 assay (bi-directional transport). Type of data set: in vitro ADME. To be noted: human, pH 7.4; for Papp A→B at 2 h, 2 μM / Papp B→A at 2 h, 2 μM: Caco-2 monolayer, pH 7.40; for Papp A→B at 2 h, 2 μM: A to B; for Papp B→A at 2 h, 2 μM: B to A. The method, then:
Caco-2 cells purchased from ATCC were seeded onto […] (PET) in 96-well Corning Insert plates at 1×10^5 cells/cm2, and refreshed medium every 4˜5 days until to the 21st to 28th day for confluent cell monolayer formation. The transport buffer in the study was HBSS with 10.0 mM HEPES at pH 7.40±0.05. Test compound was tested at 2.00 μM bi-directionally in duplicate. Digoxin was tested at 10.0 μM bi-directionally in duplicate, while nadolol and metoprolol were tested at 2.00 μM in A to B direction in duplicate. Final DMSO concentration was adjusted to less than 1%. The plate was incubated for 2 hours in CO2 incubator at 37±1° C., with 5% CO2 at saturated humidity without shaking. […] For nadolol and metoprolol, 200 μL supernatant solution was diluted with 600 μL ultra-pure water for LC-MS/MS analysis. For digoxin and test compounds, 200 μL supernatant solution was diluted with 200 μL ultra-pure water for LC-MS/MS analysis Concentrations of test and control compounds in starting solution, donor solution, and receiver solution were quantified by LC-MS/MS methodologies, using peak area ratio of analyte/internal standard. After transport assay, lucifer yellow rejection assay was applied to determine the Caco-2 cell monolayer integrity. The apparent permeability coefficient Papp (cm/s) was calculated using the equation: Papp=(dCr/dt)×Vr/(A×C0) Where dCr/dt is the cumulative concentration of compound in the receiver chamber as a function of time (μM/s); Vr is the solution volume in the receiver chamber (0.075 mL on the apical side, 0.25 mL on the basolateral side); A is the surface area for the transport, i.e. 0.0804 cm2 for the area of the monolayer, CO is the initial concentration in the donor chamber (μM).
In general terms: Caco-2 cells form a polarised layer with tight junctions and transporters.

Take `CC(C)C(=O)OC[C@H]1O[C@@H](n2ccc(NO)nc2=O)[C@@H]2OC(=O)O[C@@H]21` [Compound 1, ((3aR,4R,6R,6aR)-6-((Z)-4-(hydroxyimino)-2-oxo-3,4-dihydropyrimidin-1(2H)-yl)-2-oxotetrahydrofuro[3,4-d][1,3]dioxol-4-yl)methyl isobutyrate]: the Papp A→B (usually the apparent permeability from the apical to the basolateral side of a cell layer) at 2 h, 2 μM came out at 0.565 ×10⁻⁶ cm/s and the Papp B→A (usually the apparent permeability from the basolateral to the apical side of a cell layer) at 2 h, 2 μM is 2.04 ×10⁻⁶ cm/s. Moreover, the Papp (in general, the rate of passage across a membrane or cell layer, normalised by area and donor concentration) at 2 h, 2 μM (Caco-2, binning criteria Low/Moderate/High, read-out: Papp (permeability bin)) lay within 2 to 20 ×10⁻⁶ cm/s. Besides, for the setting “Papp(BA)/Papp(AB), Caco-2”, the efflux ratio – broadly, the permeability from basolateral to apical divided by that in the opposite direction, in the common usage – at 2 h, 2 μM amounted to 3.61.
The molecule `CC(C)C(=O)OC[C@H]1O[C@@H](n2ccc(NO)nc2=O)[C@H](O)[C@@H]1O` [molnupiravir, reference compound] registered a Papp A→B at 2 h, 2 μM of less than 0.293 ×10⁻⁶ cm/s and an apparent permeability from basolateral to apical (Papp B→A) at 2 h, 2 μM of 0.527 ×10⁻⁶ cm/s.
